The nature of data set [1]: Pharmacokinetic profile in plasma. Format: in vivo, mice. Particulars: 12.5 mg/kg IP.
A short description of data set [2]: Pharmacokinetic profile in brain. It counts as in vivo, mice. Particulars: 12.5 mg/kg IP.
In data set [3] the test system is Leukemia K562 cell. The experiment in a line: Leukemia K562 cell proliferation/viability assay (CellTiterGlo, 48 hours). The arrangement: unit not given here. The conditions noted are these: K562 cells. Format: cell-based. How it is done:
C-Abl is encoded by the ABL1 gene (NCBI Gene ID NO. 25). […] Assays for determining if a small molecule inhibits c-Abl activity are known. Non-limiting examples include cell proliferation assays using cancer cells that are BCR-Abl positive and depend on BCR-Abl for growth, such as the leukemia cell line K562. […] In some embodiments described herein, compounds are tested for ability to reduce K562 cell proliferation in an HTS adapted assay which measures cell viability using the reagent CellTiterGlo after 48 hours treatment.

Data set [4] has as its system P. falciparum strain NF54 asexual parasites. The data set can be described thus: Asexual stage parasite growth inhibition, SYBR Green assay, 72 hours. It counts as cell-based. The conditions noted are these: NF54, 72 hours; for IC50: Plasmodium falciparum. How it is done: In this example, several of the c-Abl inhibitors were tested in the asexual […] strain of P. falciparum parasites for activity against malaria. […] The pre-diluted parasites were dispensed into a 1536-well plate (2.5 μL/well). […] The fluorescence of each well was measured at 520 nm following excitation at 490 nm using a ViewLux platereader (PerkinElmer).

The values that follow come from patent US11649218B2, “C-Abl tyrosine kinase inhibitory compound embodiments and methods of making and using the same” (The USA, as represented by the Secretary, Dept. of Health …, priority 2018, dated 2023).

With `O=C(Nc1ccc(OC(F)(F)Cl)cc1)c1cnc(N2CC[C@@H](O)C2)c(-c2ccn[nH]2)c1` [ABL001], the Plasma concentration in data set [1] (Time 0.167) amounted to 5.454 µM; in data set [1] (Time 0.5), 9.137 µM; in data set [1] (Time 1), 11.174 µM; in data set [1] (Time 1.5) it was 10.189 µM; in data set [1] (Time 2), 5.483 µM; in data set [1] (Time 4), 1.628 µM. The Plasma concentration was determined as 0.399 µM in data set [1] (Time 7) and 0.007 µM in data set [1] (Time 24). The Brain concentration came out at 0.330 µmol/kg in data set [2] (Time 0.167); 0.534 µmol/kg in data set [2] (Time 0.5); 0.597 µmol/kg in data set [2] (Time 1); 0.442 µmol/kg in data set [2] (Time 1.5); 0.336 µmol/kg in data set [2] (Time 2); 0.119 µmol/kg in data set [2] (Time 4). For the same compound, the Brain concentration in data set [2] (Time 7) is 0.056 µmol/kg; in data set [2] (Time 24), 0.003 µmol/kg.

`O=C(NCCN1CCOCC1)c1cccc(-c2ccc3c(c2)C(=O)Nc2cc(OC(F)(F)F)ccc2N3)c1` [NCGC00355557, N-(2-Morpholinoethyl)-3-(11-oxo-8-(trifluoromethoxy)-10,11-dihydro-5H-dibenzo[b,e][1,4]diazepin-2-yl)benzamide]: the Efficacy in data set [3] is −91.1.

Consider `O=C1Nc2cc(OC(F)(F)F)ccc2Oc2ccc(-c3cnn(CCN4CCOCC4)c3)cc21` [NCGC00387296, 2-(1-(2-Morpholinoethyl)-1H-pyrazol-4-yl)-8-(trifluoromethoxy)dibenzo[b,f][1,4]oxazepin-11(10H)-one], for which the Efficacy in data set [3] was −81.7.

For the compound `O=C1Nc2cc(OC(F)(F)F)ccc2Oc2ccc(-c3cccc(B(O)O)c3)cc21` [NCGC00415019, (3-(11-Oxo-8-(trifluoromethoxy)-10,11-dihydrodibenzo[b,j][1,4]oxazepin-2-v)phenyl)boronic acid], in data set [3], the Efficacy is −79.0.

For `O=C1Nc2cc(OC(F)(F)F)ccc2Oc2ccc(-c3cnn(C4COC4)c3)cc21` [NCGC00387298, 2-(1-(Oxetan-3-yl)-1H-pyrazol-4-yl)-8-(trifluoromethoxy)dibenzo[b,f][1,4]oxazepin-11(10H)-one], the Efficacy in data set [3] is reported as −93.8.

Take `N#CCCn1cc(-c2ccc3c(c2)C(=O)Nc2cc(OC(F)(F)F)ccc2O3)cn1` [NCGC00387293, 3-(4-(11-Oxo-8-(trifluoromethoxy)-10,11-dihydrodibenzo[b,f][1,4]oxazepin-2-yl)-1H-pyrazol-1-yl)propanenitrile]: the Efficacy in data set [3] is −84.4.

For `CC(C)(CO)n1cc(-c2ccc3c(c2)C(=O)Nc2cc(OC(F)(F)F)ccc2O3)cn1` [NCGC00387295, 2-(1-(Hydroxy-2-methylpropan-2-yl)-1H-pyrazol-4-yl)-8-(trifluoromethoxy)dibenzo[b,f][1,4]oxazepin-11(10H)-one], the Efficacy in data set [3] is on record as −87.7.

As to `CN1CCN(C(=O)c2cccc(-c3ccc4c(c3)C(=O)Nc3cc(OC(F)(F)F)ccc3O4)c2)CC1` [NCGC00356690, 2-(3-(4-Methylpiperazine-1-carbonyl)phenyl)-8-(trifluoromethoxy)dibenzo[b,f][1,4]oxazepin-11(10H)-one], in data set [3], the Efficacy is given as −121.9.

Regarding `O=C1Nc2cc(OC(F)(F)F)ccc2Oc2ccc(-c3ccc4[nH]ncc4c3)cc21` [NCGC00373058, 2-(1H-Indazol-5-yl)-8-(trifluoromethoxy)dibenzo[b,f][1,4]oxazepin-11(10H)-one], in data set [3], the Efficacy is reported as −74.3.

Regarding `COc1ccc(-c2ccc3c(c2)C(=O)Nc2cc(OC(F)(F)F)ccc2O3)cc1O` [NCGC00373062, 2-(3-Hydroxy-4-methoxyphenyl)-8-(trifluoromethoxy)dibenzo[b,f][1,4]oxazepin-11(10H)-one], in data set [3], the Efficacy is −93.7.

Turning to `O=C1Nc2cc(OC(F)(F)F)ccc2S(=O)(=O)c2ccc(-c3ccnc(N4CCOCC4)c3)cc21` [NCGC00483140, 2-(2-Morpholinopyridin-4-yl)-8-(trifluoromethoxy)dibenzo[b,f][1,4]thiazepin-11(10H)-one 5,5-dioxide], the Efficacy in data set [3] is reported as −87.2.

`O=C1Nc2cc(OC(F)(F)F)ccc2[S+]([O-])c2ccc(-c3ccnc(N4CCOCC4)c3)cc21` (stereo not shown) [NCGC00482446, 2-(2-Morpholinopyridin-4-yl)-8-(trifluoromethoxy)dibenzo[b,f][1,4]thiazepin-11(10H)-one 5-oxide]: the Efficacy in data set [3] is −83.3.

As for `CS(=O)(=O)Nc1cccc(-c2ccc3c(c2)Oc2ccc(OC(F)(F)F)cc2NC3=O)c1` [NCGC00384235, N-(3-(11-Oxo-8-(trifluoromethoxy)-10,11-dihydrodibenzo[b,f][1,4]oxazepin-3-yl)phenyl)methanesulfonamide], the Efficacy in data set [3] is −99.8.

With `NC(=O)c1cccc(-c2cc(Nc3ccc(OC(F)(F)F)cc3)ncn2)c1` [GNF-2], the Efficacy in data set [3] is given as −85.2. For the same compound, in data set [4], the “% Killing” value stood at 86.0% and the IC50 turned out to be 1.4 µM.

As for `O=C1Nc2cc(OC(F)(F)F)ccc2Oc2ccc(-c3ccnc(N4CCOCC4)c3)cc21` [NCGC00411866, 2-(2-Morpholinopyridin-4-yl)-8-(trifluoromethoxy)dibenzo[b,f][1,4]oxazepin-11(10H)-one], in data set [4], the “% Killing” value was determined as 92.9% and the IC50 stood at 9.69 µM.

Regarding `CS(=O)(=O)Nc1cccc(-c2ccc3c(c2)Oc2cc(OC(F)(F)F)ccc2NC3=O)c1` [NCGC00384296, N-(3-(11-oxo-7-(trifluoromethoxy)-10,11-dihydrodibenzo[b,f][1,4]oxazepin-3-yl)phenyl)methanesulfonamide], in data set [3], the Efficacy is recorded as −73.3.

`O=C1Nc2cc(OC(F)(F)F)ccc2Sc2ccc(-c3ccnc(N4CCOCC4)c3)cc21` [NCGC00482456, 2-(2-Morpholinopyridin-4-yl)-8-(trifluoromethoxy)dibenzo[b,f][1,4]thiazepin-11(10H)-one]: in data set [3], the Efficacy is −85.7.

As to `CN(C)S(=O)(=O)c1cccc(-c2ccc3c(c2)C(=O)Nc2cc(OC(F)(F)F)ccc2O3)c1` [NCGC00373057, N,N-Dimethyl-3-(11-oxo-8-(trifluoromethoxy)-10. I1-dihydrodibenzo[b,f][1,4]oxazepin-2-yl)benzenesulfonamide], in data set [3], the Efficacy is on record as −85.1.

Take `CS(=O)(=O)Nc1ccc(-c2ccc3c(c2)C(=O)Nc2cc(OC(F)(F)F)ccc2N3)cc1` [NCGC00355552, N-(4-(11-oxo-8-(trifluoromethoxy)-10,11-dihydro-5H-dibenzo[b,e][1,4]diazepin-2-yl)phenyl)methanesulfonamide]: the Efficacy in data set [3] is −86.3.
